“And” between values parts separate entries of the source, which are not always exact repeats. Identical values can stand only once.
Experiments:
[1] = RNA encapsulation efficacy (EE %) by Quant-IT Ribogreen kit; format: physicochemical; conditions: LNP
Experimental: (§1) The LNP size and polydispersity index (PDI), determined by dynamic light scattering (DLS), and zeta potential were measured by a Zetasizer machine (Malvern). RNA concentration and encapsulation efficacy (EE %) were analyzed by the Quant-IT Ribogreen kit by calculating the percentage encapsulation at 100%—(RNA-LNPs/RNA-LNPs with Triton X-100).

Hep G2 cells [2] = experiment: In vitro toxicity: Hep G2 cell viability by CellTiter-Glo; format: cell-based; conditions: 72 hours post transfection, cell only = 100%
Experimental: 2E5 Hep G2 cells were transfected with 1 μg/mL RNA-LNPs. At 72 hours post transfection, cell viability (2-well repeat) was determined with the CellTiter-Glo® reagent kit, according to the kit protocol, measured by a luminometer. Cell only as control (100%).
The cell viability was calculated according to the following formula: […]

Balb/c mice = experiment: In vivo expression by IV, 0.05 mg/kg luciferase RNA-LNPs, IVIS luminescence; conditions: Formulation No. 010, RNA No. 331, female Balb/c mice, 0.05 mg*kg−1 intravenous; for Whole body at 24 h (p/s) (Mean): 24 hours post injection; for Whole body at 72 h (p/s) (Mean): 72 hours post injection
Outline: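 Female Balb/c mice (7-8 weeks, N=3) received 0.05 mg*kg−1 firefly-luciferase RNA-LNPs IV. Luciferin (15 mg/ml) was given IP at 24 and 72 h post-dose for IVIS whole-body luminescence. A second run imaged whole body, liver and spleen at 24 h only.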

injection site skin = experiment: In vivo tolerability after intradermal injection: H&E staining of injection site skin; design: species or system C57BL/6J mice; key to Infiltration, mononuclear cells, dermis/subcutaneous, focal, Grade / Edema, subcutaneous, focal, Grade / Erosion, focal, Grade / Skin, Grade: 1==minimal; 2=mild; 3=moderate; 4=marked; 5=severe; N=Normal; NA=Not applicable; —=No data; conditions: intradermal 0.15 mg/kg, 72 h, Formulation 001, RNA 331; for Edema, subcutaneous, focal, Grade / Erosion, focal, Grade / Infiltration, mononuclear cells, dermis/subcutaneous, focal, Grade: per animal; for Total score: sum of lesion grades of the group (N=3)
Experimental: 7-8 week old, female C57BL/6J mice (N=3) were injected with 0.15 mg*kg−1 of RNA-LNIPs encoding for firefly-luciferase by intradermal injection. At 72-hours post injection, injection site skin from each animal was collected in 10% formalin, for H&E staining. PBS group (N=2) as control. (Note: 1==minimal, 2=mild, 3=moderate, 4=marked, 5=severe; N=Normal; NA=Not applicable; —=No data)

[3] = LNP size and polydispersity index (PDI) by dynamic light scattering (Zetasizer); format: physicochemical; conditions: for Size (nm): Formulation No. 010 (Ionizable lipid:DSPC:cholesterol:DSPE-PEG2000 = 38:30:30:2, N/P 6), RNA No. 331
Experimental: as §1

hEPO = experiment: In vivo expression by IM: serum hEPO concentration by ELISA; conditions: IM 0.075 mg/kg, male C57BL/6J mice N=3, Formulation 001, RNA 019
Experimental: Circular RNA payloads were suspended in 25 mM Acetate Buffer (pH 4.5). To form LNPs, three volumes of human erythropoietin (hEPO) encoding cirRNA (SEQ ID NO:2), were mixed with one volume of lipids in ethanol solution by microfluidic mixing with the INano™ L+ (Micro& Nano) at a flow rate of 12 ml/min. The molar ratio of ionizable lipid to ribonucleotide was 6. After encapsulation, the particles were dialyzed twice against PBS. The LNP formulation was concentrated to targeted RNA concentration by Amicon® Ultra Centrifugal Filter (100 kDa MWCO) and filtered by a 0.65/0.22 um sterile filter.
6-8 week old, male C57BL/6J mice (N=3) were injected with 0.075 mg*kg−1 of RNA-LNPs encoding for hEPO by intramuscular injection. At 2-/6-/24-/48-/72 h-hours post injection, about 80 μL blood will be harvested and immediately added to the procoagulant containing tube. Stand for 30 min at room temperature and then centrifuged at 2500 g×10 min to obtain serum. About 30 μL serum samples will be aliquoted for hEPO concentration detection by ELISA kit (STEMCELL Technologies).

C57BL/6J mice = experiment: In vivo expression by ID, whole-body/injection site skin/lymph node luminescence; conditions: intradermal 0.15 mg/kg, 72 h post injection, female C57BL/6J mice N=3, Formulation 001, RNA 331
Experimental: 7-8 week old, female C57BL/6J mice (N=3) were injected with 0.15 mg*kg−1 of RNA-LNPs encoding for firefly-luciferase by intradermal injection. At 72-hours post injection, animals were intraperitoneally injected with 15 mg/mi of Luciferin substrate and whole-body/injection site skin/lymph node luminescence were determined by a bioluminescent in vivo imaging system (IVIS).

Hep G2 cells [4] = experiment: In vitro expression: luciferase activity in Hep G2 cells transfected with RNA-LNPs; format: cell-based; conditions: 100 ng/mL RNA-LNPs, 72 hours post transfection
Experimental: 2E5 Hep G2 cells were transfected with 100 ng/mL of RNA-LNPs encoding for firefly-luciferase. At 72 hours post transfection, the cells were washed and lysed. The luciferase expression (2-well repeat) was determined in the cell lysates with the luciferase assay reagent kit (Promega), according to the kit protocol, luciferase activity was measured by a luminometer.

[5] = Formulation No. 001, RNA No. 019 (hEPO)
[6] = Formulation No. 001, RNA No. 331
[7] = Formulation No. 010, RNA No. 331
[8] = 1 μg/mL RNA-LNPs, Formulation 001, RNA 331
[9] = Formulation No. 010, RNA No. 331, 1 μg/mL RNA-LNPs
[10] = Formulation No. 010, RNA No. 331 (firefly-luciferase)

Row | Structure (SMILES) | EE (%) [1, 5] [%] | EE (%) [1, 6] [%] | EE (%) [1, 7] [%] | In vitro cell viability (%) (Mean) (Hep G2 cells [2]; [8]) | In vitro cell viability (%) (Mean) (Hep G2 cells [2]; [9]) | Whole body at 24 h (p/s) (Mean) (Balb/c mice) | Whole body at 72 h (p/s) (Mean) (Balb/c mice) | Edema, subcutaneous, focal, Grade (injection site skin) | Erosion, focal, Grade (injection site skin) | Infiltration, mononuclear cells, dermis/subcutaneous, focal, Grade (injection site skin) | Total score (injection site skin) | PDI [3, 6] | Size [3, 6] [nm] | Size (nm) [3] [nm] | PDI [3, 7] | Injection site Skin (p/s) (C57BL/6J mice) | Lymph node (p/s) (C57BL/6J mice) | Whole body (p/s) (C57BL/6J mice) | In vitro Expression (Mean) (Hep G2 cells [4]; Formulation 001, RNA 331) | In vitro Expression (Mean) (Hep G2 cells [4]; [10]) | further results
1 | CCCCC/C=C\C/C=C\CCCCCCCC(=O)NC(COC(=O)NCCN1CCCCCC1)C(=O)OCCCCCCCC(=O)OC(CCCCCCCC)CCCCCCCC (centres unmarked) [Lipid 550] | 92.20 | 94.50 | 94.88 | 67.09 | 87.47 | 2.36E+08 | 4.96E+07 | 1 | 1 and — (2×) | 1 | 7 | 0.15 | 72.66 | 67.81 | 0.13 | 1.33E+07 | 2.06E+06 | 3.09E+07 | 1.89E+05 | 5.74E+05 | PDI [3, 5]: 0.04; Size [3, 5]: 66.58 nm; hEPO conc. (ng/mL) at 2 h (hEPO): 1.56 ng/mL; hEPO conc. (ng/mL) at 6 h (hEPO): 6.19 ng/mL; hEPO conc. (ng/mL) at 24 h (hEPO): 9.69 ng/mL; hEPO conc. (ng/mL) at 48 h (hEPO): 2.38 ng/mL; hEPO conc. (ng/mL) at 72 h (hEPO): 0.67 ng/mL
2 | CCCCC/C=C\C/C=C\CCCCCCCC(=O)N[C@@H](COC(=O)NCCN1CCCCCC1)C(=O)OCCCCCCCC(=O)OC(CCCCCCCC)CCCCCCCC [Lipid 602] | 95.79 | 97.94 | 97.13 | 82.68 | 84.17 | 2.66E+08 | 1.24E+08 | 1 (2×) and 2 | — | 1 | 7 | 0.08 | 76.34 | 64.73 | 0.16 | 3.02E+07 | 3.01E+06 | 1.40E+08 | 5.82E+05 | 6.30E+05 | PDI [3, 5]: 0.04; Size [3, 5]: 67.47 nm; hEPO conc. (ng/mL) at 2 h (hEPO): 1.02 ng/mL; hEPO conc. (ng/mL) at 6 h (hEPO): 5.02 ng/mL; hEPO conc. (ng/mL) at 24 h (hEPO): 7.65 ng/mL; hEPO conc. (ng/mL) at 48 h (hEPO): 2.44 ng/mL; hEPO conc. (ng/mL) at 72 h (hEPO): 0.76 ng/mL
3 | CCCCC/C=C\C/C=C\CCCCCCCC(=O)NC(COC(=O)NCCN1CCCCCC1)C(=O)OCCCCCC(=O)OCC(CCCCCCCC)CCCCCCCCCC (centres unmarked) [Lipid 729] |  | 95.62 | 95.94 | 65.07 | 80.55 | 1.86E+08 | 4.99E+07 | 1 (2×) and — | — | 1 | 5 | 0.08 | 71.29 | 57.90 | 0.10 | 1.33E+07 | 1.42E+06 | 6.76E+07 | 1.64E+05 | 3.44E+05 | 
4 | CCCCC/C=C\C/C=C\CCCCCCCC(=O)N[C@H](COC(=O)NCCN1CCCCCC1)C(=O)OCCCCCC(=O)OC(CCCCCCCC)CCCCCCCC [Lipid 730] |  | 97.08 | 96.20 | 75.29 | 98.64 | 2.24E+08 | 8.49E+07 | 1 | — | 1 | 6 | 0.05 | 76.53 | 59.50 | 0.09 | 1.63E+07 | 3.33E+06 | 2.81E+07 | 5.98E+05 | 7.72E+05 | 
